Measured values as given in US20240002416A1 (Rheinische-Friedrich-Wilhelms-Universität Bonn, priority 2020, published 2024).

How the values were obtained:
MRGPRX4-83S [1] = target: T1, MRGPRX4-83S (Homo sapiens, UniProt Q96LA9, L83S); assay: β-arrestin assay (CHO β-arrestin human MRGPRX4-83S); format: cell-based; set-up: host or cells: CHO β-arrestin cells
In short: (§1)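 CHO cells, recombinant hMRGPRX4 → β-arrestin recruitment via β-gal complementation. Ca mobilization → recombinant astrocytes (83L) or native LN229 cells (83S).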

MRGPRX4-83S [2] = target: T1, MRGPRX4-83S; assay: Calcium assay (human glioblastoma LN229 cells expressing the MRGPRX4-83S); format: cell-based; set-up: LN229 glioblastoma cells natively expressing the MRGPRX4-83S; endogenous in cells; host or cells: LN229 human glioblastoma cells; details: for Emax: LN-229
In short: as §1

human MRGPRX4-83L [3] = target: T2, human MRGPRX4-83L (Homo sapiens, UniProt Q96LA9); assay: Calcium assay (human MRGPRX4 83L), recombinant astrocytes; format: cell-based
T2 construct: host or cells: CHO β-arrestin cells
In short: as §1

human MRGPRX4-83L [4] = target: T2, human MRGPRX4-83L; assay: β-arrestin assay (CHO β-arrestin ARMS1-ProLink 2 human MRGPRX4 83L); format: cell-based
In short: as §1

[5] = Table 3, efficacy based on 100 nM B-16 (set as 100%), read-out: Emax
[6] = Table 3, β-arrestin recruitment, CHO cells, MRGPRX4-83S, read-out: EC50 ± SEM
[7] = Table 3, efficacy based on 30 μM H-1 (set as 100%), read-out: Emax
[8] = Table 3, calcium mobilization, LN229 cells, MRGPRX4-83S, read-out: EC50 ± SEM
[9] = Table 4, calcium mobilization, MRGPRX4-83L, read-out: EC50 ± SEM
[10] = Table 4, efficacy based on maximal effect of 1 μM B-16 (set as 100%), read-out: Emax
[11] = Table 4, efficacy based on maximal effect of 100 nM B-16 (set as 100%), read-out: Emax
[12] = Table 4, β-arrestin recruitment, CHO cells, MRGPRX4-83L, read-out: EC50 ± SEM

T1 sequence (Q96LA9 whole entry L83S): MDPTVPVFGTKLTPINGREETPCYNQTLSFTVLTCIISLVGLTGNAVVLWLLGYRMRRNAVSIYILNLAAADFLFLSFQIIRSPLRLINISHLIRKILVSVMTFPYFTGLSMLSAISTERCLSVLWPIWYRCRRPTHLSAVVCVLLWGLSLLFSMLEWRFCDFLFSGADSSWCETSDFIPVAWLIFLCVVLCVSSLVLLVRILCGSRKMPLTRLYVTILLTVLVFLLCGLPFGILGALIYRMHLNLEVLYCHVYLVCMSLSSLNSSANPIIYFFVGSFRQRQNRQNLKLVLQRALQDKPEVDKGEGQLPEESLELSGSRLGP
T2 sequence (Q96LA9 whole entry): as the sequence (Q96LA9 whole entry L83S) above, with S83L counted along it

Emax (MRGPRX4-83S [1]; [5])	EC50 (MRGPRX4-83S [1]; [6])	Emax (MRGPRX4-83S [2]; [7])	EC50 (MRGPRX4-83S [2]; [8])	melting point	EC50 (human MRGPRX4-83L [3]; [9])	Emax (human MRGPRX4-83L [3]; [10])	Emax (human MRGPRX4-83L [4]; [11])	EC50 (human MRGPRX4-83L [4]; [12])	SMILES	also measured
78%	1.48 ± 0.18 nM	92%	0.284 ± 0.074 nM	217 to 219 °C	39.7 ± 9.6 nM	62%	118%	113 ± 39 nM	C#CCn1c(=O)c2c(nc(CCc3ccccc3F)n2C)n(CCCCP(=O)(O)O)c1=O [B-28, (4-(8-(2-Fluorophenethyl)-7-methyl-2,6-dioxo-1-(prop-2-yn-1-yl)-1,2,6,7-tetrahydro-3H-purin-3-yl)butyl)phosphonic acid]	–
110%	0.146 ± 0.033 nM	104%	0.363 ± 0.109 nM	207 to 209 °C	2 ± 0.94 nM	97%	95%	9.02 ± 1.49 nM	C#CCn1c(=O)c2c(nc(CCc3c(Cl)cccc3Cl)n2CC)n(CCCCP(=O)(O)O)c1=O [B-34, (4-(8-(2,6-Dichlorophenethyl)-7-ethyl-2,6-dioxo-1-(prop-2-yn-1-yl)-1,2,6,7-tetrahydro-3H-purin-3-yl)butyl)phosphonic acid]	–
84%	4.28 ± 0.83 nM	112%	0.787 ± 0.164 nM	143 to 145 °C	25.2 ± 3 nM	109%	95%	1250 ± 410 nM	C#CCn1c(=O)c2c(nc(CCc3ccccc3Br)n2CC2CCCCC2)n(CCCCP(=O)(O)O)c1=O [B-36, (4-(8-(2-Bromophenethyl)-7-(cyclohexylmethyl)-2,6-dioxo-1-(prop-2-yn-1-yl)-1,2,6,7-tetrahydro-3H-purin-3-yl)butyl)phosphonic acid]	–
79%	13.4 ± 0.8 nM	6%	5.81 ± 0.58 nM	129 to 131 °C	267 ± 153 nM	9%	92%	1.44 ± 0.32 nM	C#CCn1c(=O)c2c(nc(CCc3ccc(Br)cc3)n2CC2CCCC2)n(CCCCP(=O)(O)O)c1=O [B-38, (4-(8-(4-Bromophenethyl)-7-(cyclopentylmethyl)-2,6-dioxo-1-(prop-2-yn-1-yl)-1,2,6,7-tetrahydro-3H-purin-3-yl)butyl)phosphonic acid]	IC50 (MRGPRX4-83S [2]): 5.23 ± 2.2 nM; IC50 (human MRGPRX4-83L [3]): 949 ± 308 nM
93%	0.298 ± 0.05 nM	97%	0.32 ± 0.087 nM	167 to 169 °C	12.7 nM	101%	99%	85.1 ± 27.9 nM	C#CCn1c(=O)c2c(nc(CCc3ccccc3Br)n2CC2CCC2)n(CCCCP(=O)(O)O)c1=O [B-45, (4-(8-(2-Bromophenethyl)-7-(cyclobutylmethyl)-2,6-dioxo-1-(prop-2-yn-1-yl)-1,2,6,7-tetrahydro-3H-purin-3-yl)butyl)phosphonic acid]	–
91%	0.075 ± 0.0184 nM	109%	0.79 ± 0.262 nM	109 to 111 °C	0.684 ± 0.073 nM	108%	116%	13.6 ± 6.1 nM	C#CCn1c(=O)c2c(nc(CCc3ccccc3Br)n2C(C)C)n(CCCCP(=O)(O)O)c1=O [B-46, (4-(8-(2-Bromophenethyl)-7-isopropyl-2,6-dioxo-1-(prop-2-yn-1-yl)-1,2,6,7-tetrahydro-3H-purin-3-yl)butyl)phosphonic acid]	–
99%	0.932 ± 0.177 nM	107%	1.48 ± 0.4 nM	159 to 161 °C	79.8 ± 36.7 nM	102%	93%	566 ± 106 nM	C#CCn1c(=O)c2c(nc(CCc3ccccc3Br)n2CCN)n(CCCCP(=O)(O)O)c1=O [B-51, (4-(7-(2-Aminoethyl)-8-(2-bromophenethyl)-2,6-dioxo-1-(prop-2-yn-1-yl)-1,2,6,7-tetrahydro-3H-purin-3-yl)butyl)phosphonic acid]	–

SMILES	Emax (MRGPRX4-83S [1]; [5])	EC50 (MRGPRX4-83S [1]; [6])	Emax (MRGPRX4-83S [2]; [7])	EC50 (MRGPRX4-83S [2]; [8])	melting point	EC50 (human MRGPRX4-83L [3]; [9])	Emax (human MRGPRX4-83L [3]; [10])	Emax (human MRGPRX4-83L [4]; [11])	EC50 (human MRGPRX4-83L [4]; [12])	also measured
C#CCn1c(=O)c2c(nc(CCc3ccccc3Br)n2CCCl)n(CCCCP(=O)(O)O)c1=O [B-50, (4-(8-(2-Bromophenethyl)-7-(2-chloroethyl)-2,6-dioxo-1-(prop-2-yn-1-yl)-1,2,6,7-tetrahydro-3H-purin-3-yl)butyl)phosphonic acid]	–	–	–	–	197 to 199 °C	–	–	–	–	EC50 (MRGPRX4-83S [1]): 0.301 ± 0.021 nM; Emax (MRGPRX4-83S [1]): 84%; EC50 (MRGPRX4-83S [2]): 0.095 ± 0.0427 nM; Emax (MRGPRX4-83S [2]): 111%; EC50 (human MRGPRX4-83L [3]): 2.28 ± 0.75 nM; Emax (human MRGPRX4-83L [3]): 118%; EC50 (human MRGPRX4-83L [4]): 24.3 ± 3.2 nM; Emax (human MRGPRX4-83L [4]): 91%
C#CCn1c(=O)c2[nH]c(CCc3cccc(OC)c3)nc2n(CCCCP(=O)(O)OCC)c1=O [D-3, Ethyl hydrogen (4-(8-(3-methoxyphenethyl)-2,6-dioxo-1-(prop-2-yn-1-yl)-1,2,6,7-tetrahydro-3H-purin-3-yl)butyl)phosphonate]	–	–	–	–	118 to 120 °C	–	–	–	–	Emax (MRGPRX4-83S [1]; Table 2, efficacy based on 100 nM B-16 (set as 100%), read-out: Emax): 110%; EC50 (MRGPRX4-83S [1]; Table 2, β-arrestin recruitment, CHO cells, MRGPRX4-83S, read-out: EC50 ± SEM): 5.8 ± 1.41 nM; Emax (MRGPRX4-83S [2]; Table 2, efficacy based on 30 μM H-1 (set as 100%), read-out: Emax): 111%; EC50 (MRGPRX4-83S [2]; Table 2, calcium mobilization, LN229 cells, MRGPRX4-83S, read-out: EC50 ± SEM): 2.65 ± 0.72 nM; EC50 (human MRGPRX4-83L [3]; Table 1, calcium mobilization, MRGPRX4-83L, read-out: EC50 ± SEM): 36.3 ± 1.8 nM; Emax (human MRGPRX4-83L [3]; Table 1, efficacy based on maximal effect of 1 μM B-16 (set as 100%), read-out: Emax): 114%; Emax (human MRGPRX4-83L [4]; Table 1, efficacy based on maximal effect of 100 nM B-16 (set as 100%), read-out: Emax): 112%; EC50 (human MRGPRX4-83L [4]; Table 1, β-arrestin recruitment, CHO cells, MRGPRX4-83L, means of 3-4 experiments, read-out: EC50 ± SEM): 407 ± 710 nM
